Usually stoichiometry N stands for a count of units in the complex or per binding partner.

In data set [1] the target is T1, WsaF (Geobacillus stearothermophilus, UniProt Q7BG50, K78A/K79A/K81A).
T1 construct: recombinant WsaF from pET28a-WsaF in E. coli BL21(DE3) Star; residues M1 to L413 mentioned
The data set is described as follows: X-ray crystal structure of soaked complex, […] Å. The conditions noted are these: crystal soaked 5 min in 20 mM dTDP-β-L-Rha; WsaFSER2 (b48 prints K78A/E79A/K81A); authors regard rhamnose ring position as incorrect. Format: binding.

The target in data set [2] is T1, WsaF. Nature of the data set: X-ray crystal structure of soaked complex, […] Å. The settings on record: crystal soaked 5 min in 25 mM dTDP; surface entropy reduction mutant WsaFSER2 (b48 prints K78A/E79A/K81A). Format: binding.
In data set [3] the target is T2, WsaF (Geobacillus stearothermophilus, UniProt Q7BG50, R254A).
T2 construct: recombinant WsaF from pET28a-WsaF in E. coli BL21(DE3) Star; residues M1 to L413 mentioned
Nature of the data set: isothermal titration calorimetry. It counts as binding. The settings on record: 20 mM NaP pH 8.5, 50 mM NaCl, 20 °C; one-site model. In general terms: ITC needs no label: the signal is the heat of the interaction.

Data set [4] deals with T3, WsaF (Geobacillus stearothermophilus, UniProt Q7BG50).
T3 construct: recombinant WsaF from pET28a-WsaF in E. coli BL21(DE3) Star; residues M1 to L413 mentioned
T3 sequence (Q7BG50 1-413): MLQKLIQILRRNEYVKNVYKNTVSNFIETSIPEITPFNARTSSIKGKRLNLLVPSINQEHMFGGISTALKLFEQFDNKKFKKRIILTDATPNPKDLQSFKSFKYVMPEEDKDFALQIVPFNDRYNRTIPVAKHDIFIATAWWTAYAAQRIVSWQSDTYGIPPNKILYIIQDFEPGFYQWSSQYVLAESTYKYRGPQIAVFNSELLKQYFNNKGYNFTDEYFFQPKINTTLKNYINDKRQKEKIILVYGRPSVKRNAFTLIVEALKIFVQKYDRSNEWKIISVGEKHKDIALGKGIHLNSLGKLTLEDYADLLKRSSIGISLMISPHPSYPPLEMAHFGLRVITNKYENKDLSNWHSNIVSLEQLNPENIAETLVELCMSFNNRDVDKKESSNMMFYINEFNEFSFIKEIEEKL
The data set is described as follows: isothermal titration calorimetry. Format: binding. The conditions noted are these: 20 mM NaP pH 8.5, 50 mM NaCl, 20 °C; one-site model.

In data set [5] the target is T4, WsaF (Geobacillus stearothermophilus, UniProt Q7BG50, E333A).
T4 construct: recombinant WsaF from pET28a-WsaF in E. coli BL21(DE3) Star; residues M1 to L413 mentioned
The data set is described as follows: isothermal titration calorimetry. The conditions noted are these: 20 mM NaP pH 8.5, 50 mM NaCl, 20 °C; one-site model. Format: binding.

Data set [6] deals with the molecule itself. The data set is described as follows: crystal structure; SeMet-labelled WsaF, space group P2_(1), two molecules in the asymmetric unit, 2.28 Å.

T1 sequence (Q7BG50 entry or part of it K78A/K79A/K81A): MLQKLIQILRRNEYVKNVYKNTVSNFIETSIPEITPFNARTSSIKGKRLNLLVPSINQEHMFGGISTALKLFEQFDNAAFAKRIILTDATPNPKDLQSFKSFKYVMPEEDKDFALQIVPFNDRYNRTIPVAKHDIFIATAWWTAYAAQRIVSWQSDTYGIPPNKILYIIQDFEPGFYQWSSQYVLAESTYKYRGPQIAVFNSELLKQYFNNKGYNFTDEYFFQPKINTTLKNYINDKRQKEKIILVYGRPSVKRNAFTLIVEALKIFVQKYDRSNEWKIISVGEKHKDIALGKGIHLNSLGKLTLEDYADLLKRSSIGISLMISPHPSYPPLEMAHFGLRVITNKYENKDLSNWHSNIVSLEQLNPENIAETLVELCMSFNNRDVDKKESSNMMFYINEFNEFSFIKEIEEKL
T2 sequence (Q7BG50 entry or part of it R254A): as the sequence (Q7BG50 entry or part of it K78A/K79A/K81A) above, with A78K, A79K, A81K, R254A counted along it
T4 sequence (Q7BG50 entry or part of it E333A): as the sequence (Q7BG50 entry or part of it K78A/K79A/K81A) above, with A78K, A79K, A81K, E333A counted along it

In the case of `Cc1cn([C@H]2C[C@H](O)[C@@H](COP(=O)(O)OP(=O)(O)O[C@H]3O[C@@H](C)[C@H](O)[C@@H](O)[C@H]3O)O2)c(=O)[nH]c1=O` [dTDP-β-L-rhamnose], the “X-ray crystal structure of soaked complex, 2.55 Å” value on WsaF [1] was “The structures of the dTDP-WsaFSER2 and dTDP-β-L-Rha-WsaFSER2 complexes were obtained by soaking”.
As to `Cc1cn([C@H]2C[C@H](O)[C@@H](COP(=O)(O)OP(=O)(O)O)O2)c(=O)[nH]c1=O` [dTDP], the “X-ray crystal structure of soaked complex, 2.81 Å” value on WsaF [2] is “The structures of the dTDP-WsaFSER2 and dTDP-β-L-Rha-WsaFSER2 complexes were obtained by soaking”. The isothermal titration calorimetry entry at WsaF [3] was “(ITC) of E333A and R254A showed weaker dTDP binding than native WsaF”; at WsaF [4], “showed weaker dTDP binding than native WsaF, when qualitatively comparing the curves (Fig. S3)”; on WsaF [5], “The mutant E333A showed a reduced binding affinity for dTDP”.

B1: SeMet-labelled WsaF from Geobacillus stearothermophilus NRS 2004/3a (enzyme)
chain: T3 sequence (Q7BG50 1-413)
modifications: selenomethionine (SeMet)-labelled
notes: WsaF, beta-1,2-rhamnosyltransferase of Geobacillus stearothermophilus NRS 2004/3a; the structure is described from M1 to L413 (M1-N25, Q58-G63 and N382-E389 with poor or no density); also called SeMet variant WsaF; SeMet-WsaF; source: E. coli BL21(DE3) Star, purified to homogeneity
B1: in data set [6], the “stoichiometry N” value came to 2.

The values above are taken from PMC3898925 (Journal of Molecular Biology, 2010).
